{"source": "patent US10392474B2", "about": "“Anionic linear polyglycerol derivatives, a method for manufacturing and applications” (FREIE UNIVERSITAET BERLIN, priority 2015, dated 2019)", "origin": "cited, not measured here", "details": "after subcutaneous administration", "data": [{"smiles": "CO[C@H]1O[C@H](COS(=O)(=O)O)[C@@H](O[C@@H]2O[C@@H](C(=O)O)[C@@H](O[C@H]3O[C@H](COS(=O)(=O)O)[C@@H](O[C@@H]4O[C@H](C(=O)O)[C@@H](O[C@H]5O[C@H](COS(=O)(=O)O)[C@@H](O)[C@H](O)[C@H]5NS(=O)(=O)O)[C@H](O)[C@H]4O)[C@H](OS(=O)(=O)O)[C@H]3NS(=O)(=O)O)[C@H](O)[C@H]2OS(=O)(=O)O)[C@H](O)[C@H]1NS(=O)(=O)O", "note": "[fondaparinux]", "values": [{"measurement": "half-life", "value": 17, "unit": "h"}]}]}
